In brackets after ≈: the same amount, converted by molar mass.

Results on 6 compounds are retold here after ChEMBL document CHEMBL5584360, “Undescribed Amaryllidaceae Alkaloids from Zephyranthes citrina and Their Cytotoxicity” (J Nat Prod, 2024).

Data set [1] in a line: Selectivity index, ratio of cytotoxic effect against human MRC5 cells to cytotoxic effect against human Jurkat cells. The format is toxicity, cell-based. The note with it: MRC5 cells versus Jurkat cells, read-out: Selectivity Index.
Data set [2] can be described thus: Selectivity index, ratio of cytotoxic effect against human MRC5 cells to cytotoxic effect against human MOLT-4 cells.
Data set [3] can be described thus: Selectivity index, ratio of cytotoxic effect against human MRC5 cells to cytotoxic effect against human A549 cells. It is filed as toxicity, cell-based. The note with it: MRC5 cells versus A549 cells, read-out: Selectivity Index.
Data set [4] is described as follows: Selectivity index, ratio of cytotoxic effect against human MRC5 cells to cytotoxic effect against human HT-29 cells. The format is toxicity, cell-based. The conditions noted are these: MRC5 cells versus HT-29 cells, read-out: Selectivity Index.
A short description of data set [5]: Selectivity index, ratio of cytotoxic effect against human MRC5 cells to cytotoxic effect against human PANC-1 cells.
A short description of data set [6]: Selectivity index, ratio of cytotoxic effect against human MRC5 cells to cytotoxic effect against human A2780 cells. It is filed as toxicity, cell-based. The note with it: MRC5 cells versus A2780 cells, read-out: Selectivity Index.
Data set [7] is described as follows: Selectivity index, ratio of cytotoxic effect against human MRC5 cells to cytotoxic effect against human HeLa cells. The note with it: MRC5 cells versus HeLa cells, read-out: Selectivity Index. The format is toxicity, cell-based.
A short description of data set [8]: Selectivity index, ratio of cytotoxic effect against human MRC5 cells to cytotoxic effect against human MCF7 cells. The format is toxicity, cell-based. The conditions noted are these: MRC5 cells versus MCF7 cells, read-out: Selectivity Index.
Data set [9] can be described thus: Selectivity index, ratio of cytotoxic effect against human MRC5 cells to cytotoxic effect against human SAOS-2 cells.
Data set [10] relates to A549. Briefly: Cytotoxicity against human A549 cells measured after 72 hrs by MTT assay. The format is functional, cell-based. The note with it: A549, 72 h.
In data set [11] the target is Acetylcholinesterase (Homo sapiens, UniProt P22303). Description: Inhibition of human AChE by Ellman's method.
Sequence of Acetylcholinesterase (P22303 whole entry): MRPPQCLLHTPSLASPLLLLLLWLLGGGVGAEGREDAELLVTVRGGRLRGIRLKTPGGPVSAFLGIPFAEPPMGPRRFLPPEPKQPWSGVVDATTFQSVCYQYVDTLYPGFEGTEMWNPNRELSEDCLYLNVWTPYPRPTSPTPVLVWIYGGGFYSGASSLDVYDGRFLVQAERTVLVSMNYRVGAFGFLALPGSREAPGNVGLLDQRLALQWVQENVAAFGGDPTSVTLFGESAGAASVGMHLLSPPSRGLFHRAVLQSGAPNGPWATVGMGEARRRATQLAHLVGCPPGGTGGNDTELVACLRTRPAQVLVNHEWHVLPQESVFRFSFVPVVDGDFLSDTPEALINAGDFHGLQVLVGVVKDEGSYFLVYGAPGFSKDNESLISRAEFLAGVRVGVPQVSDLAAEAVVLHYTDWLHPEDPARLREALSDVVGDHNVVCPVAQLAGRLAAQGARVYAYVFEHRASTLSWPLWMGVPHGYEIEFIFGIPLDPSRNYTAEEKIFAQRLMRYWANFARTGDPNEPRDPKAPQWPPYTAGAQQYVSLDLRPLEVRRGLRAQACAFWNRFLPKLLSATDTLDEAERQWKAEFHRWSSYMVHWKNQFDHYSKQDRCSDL
The target of data set [12] is Cholinesterase (Homo sapiens, UniProt P06276). Description: Inhibition of human BChE by Ellman's method.
Sequence of Cholinesterase (P06276 whole entry): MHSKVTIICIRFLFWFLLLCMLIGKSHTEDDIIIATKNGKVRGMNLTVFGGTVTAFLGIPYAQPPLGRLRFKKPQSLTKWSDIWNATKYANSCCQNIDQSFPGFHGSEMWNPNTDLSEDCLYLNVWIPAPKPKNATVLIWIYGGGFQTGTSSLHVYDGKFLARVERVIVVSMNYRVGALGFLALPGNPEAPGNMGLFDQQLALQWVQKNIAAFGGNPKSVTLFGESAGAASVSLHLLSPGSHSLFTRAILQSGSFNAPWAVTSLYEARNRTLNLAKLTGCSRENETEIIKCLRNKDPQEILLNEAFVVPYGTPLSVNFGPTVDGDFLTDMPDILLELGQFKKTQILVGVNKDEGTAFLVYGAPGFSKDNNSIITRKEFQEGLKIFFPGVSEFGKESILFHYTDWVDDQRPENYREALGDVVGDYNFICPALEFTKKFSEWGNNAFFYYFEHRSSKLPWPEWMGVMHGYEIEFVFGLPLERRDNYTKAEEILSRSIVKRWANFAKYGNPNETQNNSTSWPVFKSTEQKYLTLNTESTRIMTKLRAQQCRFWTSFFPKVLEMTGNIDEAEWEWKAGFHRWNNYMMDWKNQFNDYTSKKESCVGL
The subject of data set [13] is KB. Briefly: Cytotoxicity against human KB cells. The note with it: read-out: ED50 (the source's name). It is filed as functional.

As to `CO[C@@H]1C=C[C@@]23c4cc5c(cc4[C@H](O)N(C[C@@H]2O)[C@H]3C1)OCO5`, the selectivity ratio in data set [1], in [3], in data set [4], in [6], in data set [7] and in data set [8] was 0.14 throughout. The “Selectivity Index” value in data set [2], in data set [5] and in data set [9] was 0.14 throughout.
As to `CO[C@@H]1C=C[C@@]23c4cc5c(cc4CN(C[C@@H]2O)[C@H]3C1)OCO5` [(+)-HAEMANTHAMINE], the selectivity ratio in [1], in data set [3], in data set [4], in [6], in data set [7] and in [8] was 0.05 each time. The “Selectivity Index” value in data set [2], in [5] and in [9] was 0.05 throughout.
As to `CO[C@H]1C=C[C@@]23c4cc5c(cc4CN(C[C@@H]2O)[C@H]3C1)OCO5`, the midpoint of inhibition in data set [10], the IC50, lay at 15.9 mg/L (≈ 52.8 µM).
For `COc1cc(-c2cccc3c2N(C)CC3)c(CN2CC[C@@]34C=C[C@H](O)C[C@@H]3Oc3c(OC)ccc(c34)C2)c(OC)c1OC`, the values for the 50% inhibitory concentration (IC50) in [11] and in [12] were 18.7 µM and 1.34 µM, respectively.
Consider `O[C@H]1[C@H]2c3cc4c(cc3CN3CCC(=C[C@@H]1O)[C@H]23)OCO4` [LYCORINE], for which the selectivity ratio in data set [1], in data set [3], in [4], in [6], in [7] and in data set [8] was 0.62 in each case. Further, the “Selectivity Index” value in data set [2], in data set [5] and in data set [9] was 0.62 throughout.
On to `COc1cc2c(cc1OC)[C@@]13C=CC(O)C[C@@H]1N(CC3)C2` (stereo partly specified), for which the EC50 in [13] worked out at 0.51 mg/L (≈ 1.77 µM).
